Results: patent US4233309A, “Novel 1-substituted-3-acylpyrrole derivatives, platelet aggregation inhibitors containing them, as active ingredients, and processes for production of said derivatives” (Teijin Limited, priority 1977, dated 1980)
In brackets after ≈: the same amount, converted by molar mass. Read-outs that look alike come from different tables or passages of the source.

Experiments:
[1] = test system: platelet aggregation (guinea pig PRP, extra vivo); experiment: Inhibitory effect of compounds on platelet aggregation in extra vivo (Table 4); design: species or system Hartley-strain guinea pigs; conditions: Cavia porcellus, 100 mg/kg, route PS [sic], 1 h
Procedure: The effect of the compounds shown in Table 4 on platelet aggregation was assessed using guinea pig in extra vivo.
Each of the test compounds was dissolved in propylene glycol so that its concentration became 100 mg/ml (dosage corresponded to 100 mg/kg) and 30 mg/ml (dosage corresponded to 30 mg/kg). The drug solution was administered either orally or subcutaneously to Hartley-strain guinea pigs (3 per group) having a body weight of 300 to 350 g. As a control, propylene glycol was administered. One hour after the administration, citrated blood was taken out by cardiac puncture, and centrifuged to obtain PRP (see Example 67).
In the case of oral administration, the animals had been fasted overnight.
Into a quvett set in a holder of an aggregometer and prewarmed at 37° C. with stirring, was put 450 μl of the above PRP, and then 50 μl of an aggregating agent was added. The aggregation curve was recorded for an additional 3 minutes, and an increase in light transmittance through PRP after 3 minutes (TB) was recorded (see Example 67). As a control, an increase of transmittance of PRP taken from a guinea pig group administered with propylene glycol alone (TA) was recorded in the same way above. The percent inhibitions were calculated in accordance with the following equation. [formula]
As the aggregating agent, sodium arachidonate (a final concentraton of 0.03 mM) and a collagen suspension (a final concentration of 5 μg/ml) were used.
The percent inhibitions in the above table are averages of three guinea pigs. For details of the above extra vivo test about inhibition of platelet aggregation, the literature references described in Example 67 may be referred to.

[2] = test system: platelet aggregation (platelet-rich plasmas (PRP) of guinea pigs); experiment: Activity of inhibiting platelet aggregation in vitro, guinea pig PRP, sodium arachidonate as aggregating agent (Table 1); format: cell-based, Hartley-strain male guinea pigs; conditions: Cavia porcellus, sodium arachidonate 0.03 mM final, 37° C., final concentration, read-out: IC50 (minimum concentration of drug which showed a percent inhibition of more than 50%)
Procedure: (§1) Some 1-substituted-3-acylpyrrole derivatives and other drugs were tested for platelet aggregation inhibiting activities in vitro using platelet-rich plasmas (PRP) of man and guinea pigs. The results are shown as minimum concentration of drugs which inhibit more than 50% of platelet aggregation induced by several aggregating agents.
(§2) In experiments with PRP of guinea pigs, sodium arachidonate (final concentration 0.03 mM) was used as an aggregating agent. In experiments with human PRP, sodium arachidonate (final concentration 0.1 mM), collagan suspension (final concentration 10 μg/ml), epinephrine solution (final concentration 20 μg/ml; for secondary aggregation), an epinephrine solution (final concentration 2 μg/ml; for primary aggregation) and ADP (final concentration 5 μM) were used as aggregating agents.
In an experiment with guinea pig PRP, citrated blood (containing 0.38% sodium citrate as a final concentration) was withdrawn by cardiac puncture from Hartley-strain male guinea pigs having a body weight of 350 to 600 g. The citrated blood was centrifuged at 1,000 rpm for 10 minutes at room temperature, and the supernatant platelet suspension (PRP) was separated.
The PRP was stored at room temperature, and used as soon as possible. Those which had been stored for more than 4 hours after preparation were not used.
(§3) For each test, a drug is dissolved in dimethylsulfoxide to a concentration of 10 mg/ml, and diluted with physiological saline to form 1 ml each of solutions having a concentration of 2500 μg/ml, 1000 μg/ml, 750 μg/ml, 500 μg/ml, 250 μg/ml and 100 μg/ml. A compound having a free carboxylic acid as a residue such as indomethacine and Ibprofen was dissolved in 0.1 M NaHCO3 to form a sodium salt solution having a concentration of 10 mg/ml. Then, the solution was diluted with physiological saline in the same way as above to form a test drug solution.
(§4) Arachidonic acid (99% pure, a product of Sigma Co., Ltd.) was dissolved in 0.1 M NaHCO3, and a 3.3 mM solution of sodium arachidonate was prepared. The solution was diluted with physiological saline to a concentration of 1 mM and used in the experiments. The 3.3 mM solution was stored in a refrigerator as a stock solution, and the 1 mM solution was newly prepared from the stock solution every time it was used.
(§5) Physiological saline (50 μl) and 50 μl of the aggregating agent solution were added to 400 μl of PRP which had been pre-warmed and stirred at 37° C. in a quvett set in a holder of an aggregometer. Platelet aggregation was thus initiated, and the change of light transmittance through a stirred platelet suspension was recorded for 3 minutes by a recorder joined to the aggregometer. An increase in transmittance after 3 minutes (T0) was used as a parameter of the rate of platelet aggregation in control experiments.
(§6) To 400 μl of PRP in a quvett was added 50 μl of a test drug solution. The mixture was pre-incubated and stirred for 2 minutes at 37° C. Then 50 μl of the aggregating agent was added to drug containing PRP and again aggregation responses were recorded as increases in light transmittance after 3 minutes (T1) in the same way as in (1) above. Percent inhibition was calculated from the formula [formula]
For the above in vitro test for the inhibition of platelet aggregation, reference may be had to H. M. Davis, J. Phyllis, K. Paul and W. Terry: Thromb. Res. 11, 217-226 (1977) and R. E. Anderson and J. G. Foulks: Thromb. Haemos. 36, 343-359 (1976).

[3] = test system: biosynthesis of prostaglandins (microsomes of the seminal vesicle of bovine); experiment: Inhibitory effect on prostaglandin biosynthesis in vitro (Table 3); format: biochemical; conditions: 4 μg/ml sodium arachidonate, bioassay on rat fundus stomach strips
Procedure: Sprangue-Dawley rats (male, 180-200 g) were fasted overnight, and killed by blow on the head. The stomach was isolated, and fundus stomach strips were prepared. The smooth muscle strips were perfused with Krebs-Hensleit solution (gassed with 95% O2 +5% CO2 gas) of 37° C. at a rate of […]. The Krebs-Hensleit solution contained 0.1 μg/ml of atropine, 0.1 μg/ml of phenoxybenzamine, 3 μg/ml of propranolol, 0.1 μg/ml of tripelennamine, and 0.2 μg/ml of methylsergide to prevent the effect of smooth muscle contracting substances, and 1 μg/ml of indomethacine to inhibit the biosynthesis of prostaglandin by the smooth muscles. Then, 150 μl of a reaction solution containing biologically synthesized prostaglandin was added to the perfusion solution, and the amount of the biologically synthesized prostaglandin was measured from the contraction of the smooth muscles. The contraction of the smooth muscles was recorded on a recorder using an isotonic transducer.
The reaction solution containing biologically synthesized prostaglandin was prepared in the following manner.
To 0.4 mg/ml of microsomes of the seminal vesicle of bovine were added 5 mM of L-tryptophan, 0.025 μM of bovine hemoglobin and 3 mμ of glutathione as cofactors. The mixture was incubated together with each of the test compounds shown in Table 4 at 37° C. for 2 minutes, and immediately then, 4 μg/ml of sodium arachidonate was added. The mixture was further incubated at 37° C. for 10 minutes, and immediately then, the prostaglandin activity of the reaction solution was measured by bioassay.
The microsomes of the seminal vesicle of bovine had been prepared by suspending microsomes of the seminal vesicle of bovine (a product of Miles Laboratories, Inc.) in a 50 mM Tris.HCl buffer (pH 7.4) using a glass homogenizer, and stored in ice water prior to use.
ID50 denotes the concentration of each test compound required to inhibit the biosynthesis of prostaglandins by 50%.

[4] = test system: platelet aggregation (human PRP); experiment: Activity of inhibiting platelet aggregation in vitro, human PRP, several aggregating agents (Table 2); format: cell-based, human (healthy volunteers)
Procedure: as §1, §2
In the experiment using human PRP, heapinized blood (containing 20 IU/ml of heparin) was taken from the cubital vein of healthy volunteers, and centrifuged at 1,000 rpm at room temperature for 10 minutes. The supernatant platelet suspension (PRP) was separated.
as §3, §4
The collagen suspension (made by Hormon-Chemie, West Germany) was diluted with physiological saline to a concentraton of 100 μg/ml.
Epinephrine hydrogen tartarate was dissolved in physiological saline to form solutions having a concentration of 200 μg/ml (corresponding to a final concentration of 2 μg/ml).
Disodium salt of ADP was dissolved in a 0.1 M tris-hydrochloric acid buffer to form a 50 μM solution (corresponding to a final concentraton of 5 μM).
as §5
as §6, with “[formula] […]” for “[formula]”

carrageenan edema = experiment: Antiinflammatory activity (carrageenan edema of rat paw, Table 5); format: in vivo, Sprangue-Dawley (SD) male rats; conditions: 3 h after 1% carrageenan
Procedure: Sprangue-Dawley (SD) male rats with a body weight of 160 to 180 g, four in each group, were used. The volume of the left leg was measured, and each of the test compounds shown in Table 5 (100 mg/kg dissolved in polyethylene glycol so as to provide a volume of 2 ml/kg) was orally administered. One hour later, 0.1 ml of 1% carrageenan (dissolved in physiological saline) as an inflammation-inducing substance was subcutaneously injected to the paw of the left hind leg. A control group was orally administered with 2 ml/kg of polyethylene glycol. As a positive control, 25 mg/kg of Ibprofen was similarly administered. Three hours after the injection of 1% carrageenan, the volume of the left leg was measured, and the ratio of edema was calculated from the volume before the administration of the carrageenan. The percent inhibition of edema in comparison with the control group was determined.

[5] = collagen 5 μg/ml, read-out: Percent inhibition of platelet aggregation, collagen
[6] = sodium arachidonate 0.03 mM, read-out: Percent inhibition of platelet aggregation, sodium arachidonate

SMILES | inhibition at 100 mg/kg [1, 5] [%] | inhibition at 100 mg/kg [1, 6] [%] | IC50 [2] [µg/mL] | ID50 (concentration required to inhibit the biosynthesis of prostaglandins by 50%) [3] [µg/mL] | also measured
CC(=O)Oc1ccccc1C(=O)O [Acetylsalicylic acid, reference compound] | 41 | 77 | – | – | –
Cc1cc(C(=O)c2ccccc2)c(C)n1CCSc1ccccc1 [Compound 404, 2-(3-benzoyl-2,5-dimethylpyrrol-1-yl)ethyl phenyl sulfide] | – | – | 2.5 (≈ 7.45 µM) | – | –
Cc1cc(C(=O)c2ccccc2)c(C)n1[C@@H](C)CO [Compound 108, (2S)-2-(3-benzoyl-2.5-dimethylpyrrol-1-yl)-2-methylethanol] | 14 | 62 | 5 (≈ 19.4 µM) | – | –
COC(c1ccccc1)C(C)n1c(C)cc(C(=O)c2ccccc2)c1C (stereo not shown) [Compound 218, 2-(3-benzoyl-2,5-dimethylpyrrol-1-yl)-2-methyl-1-phenylethyl methyl ether] | – | – | 5 (≈ 14.4 µM) | – | –
CCOC(=O)C(C)n1c(C)cc(C(=O)c2ccccc2)c1C (stereo not shown) [Compound 706, ethyl 2-(3-benzoyl-2,5-dimethylpyrrol-1-yl) propionate] | – | – | 1 (≈ 3.34 µM) | 20.0 | –
COCCn1c(C)cc(C(=O)c2ccccc2C)c1C [Compound 238, 2-(3-o-methylbenzoyl-2,5-dimethylpyrrol-1-yl) ethyl methyl ether] | – | – | 10 (≈ 36.9 µM) | – | –
COc1ccc2c(c1)c(CC(=O)O)c(C)n2C(=O)c1ccc(Cl)cc1 [Indomethacine] | – | – | 5 (≈ 14 µM) | 0.6 | IC50 ([4]; ADP 5 μM, read-out: IC50, aggregation by ADP): 10 µg/mL (≈ 27.9 µM); IC50 ([4]; arachidonate 0.1 mM, read-out: IC50, aggregation by arachidonate): 1 µg/mL (≈ 2.79 µM); IC50 ([4]; collagen 10 μg/ml, read-out: IC50, aggregation by collagen): 10 µg/mL (≈ 27.9 µM); IC50 ([4]; epinephrine 2 μg/ml, primary aggregation, read-out: IC50, aggregation by epinephrine, primary): 10 µg/mL (≈ 27.9 µM); IC50 ([4]; epinephrine 20 μg/ml, secondary aggregation, read-out: IC50, aggregation by epinephrine, secondary): 1 µg/mL (≈ 2.79 µM)
COCCn1c(C)cc(C(=O)c2cccs2)c1C [Compound 252, 2-[3-(2-thenoyl)-2,5-dimethylpyrrol-1-yl]-ethyl methyl ether] | – | – | 2.5 (≈ 9.49 µM) | – | –
CCCCC(=O)OCC(C)n1c(C)cc(C(=O)c2ccccc2)c1C (stereo not shown) [Compound 310, 2-(3-benzoyl-2,5-dimethylpyrrol-1-yl)-2-methylethyl valerate] | – | – | 2.5 (≈ 7.32 µM) | 11.5 | –
Cc1cc(C(=O)c2ccccc2)c(C)n1C(C)C(N)=O (stereo not shown) [Compound 802, 2-(3-benzoyl-2,5-dimethylpyrrol-1-yl)propionamide] | 40 | 100 | 5 (≈ 18.5 µM) | – | –
Cc1cc(C(=O)c2ccccc2)c(C)n1[C@H](C)CO [Compound 110, (2R)-2-(3-benzoyl-2,5-dimethylpyrrol-1-yl)-2-methylethanol] | 90 | 96 | 1 (≈ 3.89 µM) | – | –
CC(C)Cc1ccc(C(C)C(=O)O)cc1 (stereo not shown) [Ibprofen, reference compound] | – | – | – | – | Percent inhibition of edema (positive control) (carrageenan edema; 25 mg/kg): 51%
COCC(C)n1c(C)cc(C(=O)c2ccccc2)c1C (stereo not shown) [Compound 206, 2-(3-benzoyl-2,5-dimethylpyrrol-1-yl)-2-methylethyl methyl ether] | 97 | 90 | 2.5 (≈ 9.21 µM) | 18.4 | Percent inhibition of edema (carrageenan edema; 100 mg/kg orally): 10%
Cc1cc(C(=O)c2ccccc2)c(C)n1CCO [Compound 100, 2-(3-benzoyl-2,5-dimethylpyrrol-1-yl)-ethanol] | – | – | 5 (≈ 20.6 µM) | 145.3 | –
Cc1cc(C(=O)c2ccccc2)c(C)n1C(C)COC(=O)c1ccccc1 (stereo not shown) [Compound 314, 2-(3-benzoyl-2,5-dimethylpyrrol-1-yl)-2-methylethyl benzoate] | – | – | 1 (≈ 2.77 µM) | 56.0 | –
CC(=O)OC(c1ccccc1)C(C)n1c(C)cc(C(=O)c2ccccc2)c1C (stereo not shown) [Compound 328, 2-(3-benzoyl-2,5-dimethylpyrrol-1-yl)-2-methyl-1-phenylethyl acetate] | – | – | 2.5 | – | –
